Assay results taken from publication PMC10331583, “Control of fibrosis with enhanced safety via asymmetric inhibition of prolyl‐tRNA synthetase 1” (EMBO Molecular Medicine, 2023).
“And” between values parts separate entries of the source, which are not always exact repeats. Equal entries are not always repeated. Where two headings read alike, the source gives them in different places.

Assays:
[1] = CellTiter‐Glo assay (cytotoxicity); settings: human, WI-26 VA4 cells
Description: (§1) After 24 h, the cells were incubated with various concentrations of compounds for 48 h. The level of ATP as a measure of cell viability was determined using a CellTiter‐Glo® luminescent cell viability assay kit (Promega, G7571) following the manufacturer's instructions.
(§2) WI‐26 VA4 cells were seeded at 1.2 × 10^4 cells/well in 96‐well white plates. After 24 h, the cells were incubated with the indicated concentrations of compounds for 72 h. The viability was determined as described above.

[2] = tested on: WI‐26 VA4 cells; assay: CellTiter‐Glo assay (cytotoxicity); settings: for activity at 0.003 µM / activity at 0.01 µM / activity at 0.03 µM / activity at 0.1 µM / activity at 0.3 µM / activity at 1 µM / activity at 3 µM / activity at 10 µM / activity at 30 µM / activity at 100 µM: Homo sapiens
Description: as §1, §2

[3] = tested on: WI‐26 VA4 cells; assay: Puromycin incorporation assay; format: cell-based, human; settings: for activity at 0.1 µM: WI26VA4, 100 nM; for activity at 0.3 µM: WI26VA4, 300 nM; for activity at 1 µM: WI26VA4, 1000 nM; for activity at 3 µM: WI26VA4, 3000 nM; for activity at 5 µM: WI26VA4, 5000 nM; for activity at 10 µM: WI26VA4, 10000 nM
Description: After being rinsed with cold PBS twice, the cells were collected and resuspended in 200 μl of the carbonate bicarbonate buffer (Sigma Aldrich, C3041‐50CAP) with protease inhibitor. The cell lysates were obtained by sonication and centrifugation at 20,000 g for 15 min at 4°C. After protein quantification using a Pierce™ BCA Protein Assay Kit (Thermo Fisher Scientific, 23225), 400 ng of the proteins was coated to ELISA plates for 18 h at 4°C. […] The plates were rinsed with the washing buffer for three times after each antibody incubation step. […] The amount of puromycin incorporated in proteins was determined by measuring the absorbance at 450 nm (reference wavelength at 620 nm). Experimental values marked in red with strikethrough text in the Figure Source Data file were excluded from the analysis. These values were determined by considering the values of biological and technical replicates under the same condition, as well as the values at the former and later chemical concentrations.

[4] = Homo sapiens, read-out: Puromycin, % of control, average
[5] = Homo sapiens, read-out: Puromycin, % of control, single replicate

In the case of `Cc1c(Cl)ccc2c1ncn2CC(=O)C[C@H]1NCCC[C@@H]1O` [DWN11748], the CC50 at 72 h [1] is reported as 1440 nM, the activity at 0.003 µM ([2]; WI26VA4, read-out: CellTiter-Glo % of control, 3 nM, Experiment #1, replicates) is reported as 99.9% and the activity at 0.003 µM ([2]; WI26VA4, read-out: CellTiter-Glo % of control, 3 nM, Experiment #2, replicates) is reported as 90.9%. It also gave an activity at 0.01 µM ([2]; WI26VA4, read-out: CellTiter-Glo % of control, 10 nM, Experiment #1, replicates) of 90.9%, an activity at 0.01 µM ([2]; WI26VA4, read-out: CellTiter-Glo % of control, 10 nM, Experiment #2, replicates) of 98.9% and an activity at 0.03 µM ([2]; WI26VA4, read-out: CellTiter-Glo % of control, 30 nM, Experiment #1, replicates) of 91.9%. For the same compound, the activity at 0.03 µM ([2]; WI26VA4, read-out: CellTiter-Glo % of control, 30 nM, Experiment #2, replicates) was 83.2%, the activity at 0.1 µM ([2]; WI26VA4, read-out: CellTiter-Glo % of control, 100 nM, Experiment #1, replicates) was 103% and the activity at 0.1 µM ([2]; WI26VA4, read-out: CellTiter-Glo % of control, 100 nM, Experiment #2, replicates) was 86%. It also gave an activity at 0.3 µM ([2]; WI26VA4, read-out: CellTiter-Glo % of control, 300 nM, Experiment #1, replicates) of 83.6%, an activity at 0.3 µM ([2]; WI26VA4, read-out: CellTiter-Glo % of control, 300 nM, Experiment #2, replicates) of 68.5% and an activity at 1 µM ([2]; WI26VA4, read-out: CellTiter-Glo % of control, 1000 nM, Experiment #1, replicates) of 70.6%. For the same compound, the activity at 1 µM ([2]; WI26VA4, read-out: CellTiter-Glo % of control, 1000 nM, Experiment #2, replicates) was 67.6%, the activity at 3 µM ([2]; WI26VA4, read-out: CellTiter-Glo % of control, 3000 nM, Experiment #1, replicates) was 29.5% and the activity at 3 µM ([2]; WI26VA4, read-out: CellTiter-Glo % of control, 3000 nM, Experiment #2, replicates) was 29.4%. The activity at 10 µM ([2]; WI26VA4, read-out: CellTiter-Glo % of control, 10000 nM, Experiment #1, replicates) was 30.3%, the activity at 10 µM ([2]; WI26VA4, read-out: CellTiter-Glo % of control, 10000 nM, Experiment #2, replicates) was 20.9% and the activity at 30 µM ([2]; WI26VA4, read-out: CellTiter-Glo % of control, 30000 nM, Experiment #1, replicates) was 18.8%. For the same compound, the activity at 30 µM ([2]; WI26VA4, read-out: CellTiter-Glo % of control, 30000 nM, Experiment #2, replicates) was 10.1%, the activity at 100 µM ([2]; WI26VA4, read-out: CellTiter-Glo % of control, 100000 nM, Experiment #1, replicates) was 0.73% and the activity at 100 µM ([2]; WI26VA4, read-out: CellTiter-Glo % of control, 100000 nM, Experiment #2, replicates) was 0.58%. For the same compound, the activity at 0.003 µM ([2]; WI26VA4, read-out: CellTiter-Glo % of control, average, 3 nM, average) was 102%, the activity at 0.01 µM ([2]; WI26VA4, read-out: CellTiter-Glo % of control, average, 10 nM, average) was 96.5% and the activity at 0.03 µM ([2]; WI26VA4, read-out: CellTiter-Glo % of control, average, 30 nM, average) was 91.9%. For the same compound, the activity at 0.1 µM ([2]; WI26VA4, read-out: CellTiter-Glo % of control, average, 100 nM, average) was 94.6%, the activity at 0.3 µM ([2]; WI26VA4, read-out: CellTiter-Glo % of control, average, 300 nM, average) was 75.5% and the activity at 1 µM ([2]; WI26VA4, read-out: CellTiter-Glo % of control, average, 1000 nM, average) was 63.5%. It also gave an activity at 3 µM ([2]; WI26VA4, read-out: CellTiter-Glo % of control, average, 3000 nM, average) of 27.5%, an activity at 10 µM ([2]; WI26VA4, read-out: CellTiter-Glo % of control, average, 10000 nM, average) of 25.4% and an activity at 30 µM ([2]; WI26VA4, read-out: CellTiter-Glo % of control, average, 30000 nM, average) of 13.7%. For the same compound, the activity at 100 µM ([2]; WI26VA4, read-out: CellTiter-Glo % of control, average, 100000 nM, average) was 0.5%, the “CellTiter-Glo LogIC50 (best-fit value)” value ([2]; log(inhibitor) vs. response, variable slope (four parameters), concentration in nM) was 3.159 and the “Puromycin, % of control, single replicate” value (shortened to “Puromycin, % of control”) ([3]; 300 nM, 0.3 µM) was 100.32 % of control and 98.22 % of control and 104.21 % of control and 104.56 % of control and 103.89 % of control and 104.45 % of control and 100.10 % of control and 97.92 % of control. The “Puromycin, % of control” value ([3]; 1000 nM, 1 µM) was 97.71 % of control and 98.10 % of control and 102.31 % of control and 107.16 % of control and 101.57 % of control and 105.82 % of control and 108.83 % of control, the “Puromycin, % of control” value ([3]; 3000 nM, 3 µM) was 32.63 % of control and the “Puromycin, % of control” value ([3]; 5000 nM, 5 µM) was 22.79 % of control and 22.67 % of control and 25.49 % of control and 25.64 % of control and 24.99 % of control and 25.25 % of control and 25.95 % of control and 25.31 % of control. The “Puromycin, % of control” value ([3]; 10000 nM, 10 µM) was 12.21 % of control and 11.47 % of control and 15.58 % of control and 13.74 % of control and 13.61 % of control and 15.33 % of control and 15.25 % of control and 13.38 % of control, the “Puromycin, % of control” value ([3]; 100000 nM, 100 µM) was 0.86 % of control and 1.09 % of control and 0.96 % of control and 0.69 % of control and 0.0546 % of control and 1.21 % of control and 1.52 % of control and 1.41 % of control and 1.00 % of control and the activity at 0.1 µM [3, 4] was 106%. For the same compound, the activity at 0.1 µM [3, 5] was 113%, the activity at 0.3 µM [3, 4] was 102% and the activity at 0.3 µM [3, 5] was 102%. The activity at 1 µM [3, 4] was 103%, the activity at 1 µM [3, 5] was 101% and the activity at 3 µM [3, 4] was 31.2%. It also gave an activity at 3 µM [3, 5] of 29.7%, an activity at 5 µM [3, 4] of 24.6% and an activity at 5 µM [3, 5] of 23.1%. It also gave an activity at 10 µM [3, 4] of 13.7%, an activity at 10 µM [3, 5] of 12.4% and an activity at 30 µM ([3]; Homo sapiens, WI26VA4, 30000 nM, read-out: Puromycin, % of control, average) of 1.05%.
